Source: patent US20120202690A1, “HERBICIDAL COMPOUNDS” (SYNGENTA LIMITED, priority 2009, published 2012)

Key:
Type in all cases: in vivo
[1] = tested on: Echinochloa crusgaffi (ECHCG); assay: Post-emergence biological efficacy, glasshouse, 500 or 1000 g/ha, evaluated after 13 days (100=total damage to plant; 0=no damage to plant); conditions: Echinochloa, 312 h, read-out: Percentage damage caused to weed species, post-emergence, ECHCG; for pest or weed control at 1000 g/ha: rate 1,000 g/ha
In short: (§1)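 Standard soil, potted from seed; post-emergence treatment; glasshouse 24/16° C. (day/night), 14 h light, 65% humidity; watering twice daily.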

[2] = tested on: Alopecurus myosuroides (ALOMY); assay: as above; conditions: Alopecurus myosuroides, 312 h, read-out: Percentage damage caused to weed species, post-emergence, ALOMY; for pest or weed control at 1000 g/ha: rate 1,000 g/ha
In short: as §1

Setaria faberi (SETFA) [3] = assay: as above; conditions: Setaria faberi, 312 h, read-out: Percentage damage caused to weed species, post-emergence, SETFA; for pest or weed control at 1000 g/ha: rate 1,000 g/ha
In short: as §1

[4] = tested on: Amaranthus retroflexus (AMARE); assay: as above; conditions: Amaranthus retroflexus, 312 h, read-out: Percentage damage caused to weed species, post-emergence, AMARE; for pest or weed control at 1000 g/ha: rate 1,000 g/ha
In short: as §1

Solanum nigrum (SOLNI) [5] = assay: as above; conditions: Solanum nigrum, 312 h, read-out: Percentage damage caused to weed species, post-emergence, SOLNI; for pest or weed control at 1000 g/ha: rate 1,000 g/ha
In short: as §1

[6] = tested on: Ipomoea hederaceae (IPOHE); assay: as above; conditions: Ipomoea, 312 h, read-out: Percentage damage caused to weed species, post-emergence, IPOHE; for pest or weed control at 1000 g/ha: rate 1,000 g/ha
In short: as §1

[7] = tested on: Echinochloa crus-galli (ECHCG); assay: Pre-emergence biological efficacy, glasshouse, 1000 g/ha, evaluated after 13 days (100=total damage to plant; 0=no damage to plant); conditions: Echinochloa crus-galli, 312 h, read-out: Percentage damage caused to weed species, pre-emergence, ECHCG; for pest or weed control at 1000 g/ha: rate 1,000 g/ha
In short: (§2)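 Glasshouse conditions were controlled at 24/16° C. day/night with a 14-hour photoperiod and 65% humidity; pots contained standard soil into which seeds had been sown, and plants were watered twice daily.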

[8] = tested on: Alopecurus myosuroides (ALOMY); assay: as above; conditions: Alopecurus myosuroides, 312 h, read-out: Percentage damage caused to weed species, pre-emergence, ALOMY; for pest or weed control at 1000 g/ha: rate 1,000 g/ha
In short: as §2

Setaria faberi (SETFA) [9] = assay: as above; conditions: Setaria faberi, 312 h, read-out: Percentage damage caused to weed species, pre-emergence, SETFA; for pest or weed control at 1000 g/ha: rate 1,000 g/ha
In short: as §2

[10] = tested on: Amaranthus retroflexus (AMARE); assay: as above; conditions: Amaranthus retroflexus, 312 h, read-out: Percentage damage caused to weed species, pre-emergence, AMARE; for pest or weed control at 1000 g/ha: rate 1,000 g/ha
In short: as §2

Solanum nigrum (SOLNI) [11] = assay: as above; conditions: Solanum nigrum, 312 h, read-out: Percentage damage caused to weed species, pre-emergence, SOLNI; for pest or weed control at 1000 g/ha: rate 1,000 g/ha
In short: as §2

[12] = tested on: Ipomoea hederaceae (IPOHE); assay: as above; conditions: Ipomoea, 312 h, read-out: Percentage damage caused to weed species, pre-emergence, IPOHE; for pest or weed control at 1000 g/ha: rate 1,000 g/ha
In short: as §2

## COc1c(Cl)ccc(-c2nc(C(=O)O)c3c(C)cn(S(=O)(=O)c4ccc(C)cc4)c3n2)c1F [Compound 19-63, 4-Carboxy-2-(4-chloro-2-fluoro-3-methoxyphenyl)-5-methyl-7-(4-methylphenyl-sulphonyl)-7H-pyrrolo[2,3-d]pyrimidine]
[1]
  pest or weed control at 1000 g/ha: 0%
[2]
  pest or weed control at 1000 g/ha: 0%
Setaria faberi (SETFA) [3]
  pest or weed control at 1000 g/ha: 0%
[4]
  pest or weed control at 1000 g/ha: 50%
Solanum nigrum (SOLNI) [5]
  pest or weed control at 1000 g/ha: 70%
[6]
  pest or weed control at 1000 g/ha: 60%
[7]
  pest or weed control at 1000 g/ha: 0%
[8]
  pest or weed control at 1000 g/ha: 0%
Setaria faberi (SETFA) [9]
  pest or weed control at 1000 g/ha: 0%
[10]
  pest or weed control at 1000 g/ha: 0%
Solanum nigrum (SOLNI) [11]
  pest or weed control at 1000 g/ha: 0%
[12]
  pest or weed control at 1000 g/ha: 0%

## COC(=O)c1nc(-c2ccc(Cl)c(OC)c2F)nc2c1Nc1ccccc1N2 [Compound 119-168, 2-(4-chloro-2-fluoro-3-methoxyphenyl)-4-methoxycarbonyl-5,10-dihydro-benzo[g]pteridine]
[1]
  pest or weed control at 1000 g/ha: 0%
[2]
  pest or weed control at 1000 g/ha: 0%
Setaria faberi (SETFA) [3]
  pest or weed control at 1000 g/ha: 0%
[4]
  pest or weed control at 1000 g/ha: 10%
Solanum nigrum (SOLNI) [5]
  pest or weed control at 1000 g/ha: 30%
[6]
  pest or weed control at 1000 g/ha: 40%
[7]
  pest or weed control at 1000 g/ha: 0%
[8]
  pest or weed control at 1000 g/ha: 0%
Setaria faberi (SETFA) [9]
  pest or weed control at 1000 g/ha: 0%
[10]
  pest or weed control at 1000 g/ha: 0%
Solanum nigrum (SOLNI) [11]
  pest or weed control at 1000 g/ha: 0%
[12]
  pest or weed control at 1000 g/ha: 0%

## COC(=O)c1nc(C2CC2)nc2[nH]c(C)cc12 [Compound 1-6, 2-cyclopropyl-4-methoxycarbonyl-6-methyl-7H-pyrrolo[2,3-d]pyrimidine]
[1]
  pest or weed control at 1000 g/ha: 0%
[2]
  pest or weed control at 1000 g/ha: 0%
Setaria faberi (SETFA) [3]
  pest or weed control at 1000 g/ha: 0%
[4]
  pest or weed control at 1000 g/ha: 0%
Solanum nigrum (SOLNI) [5]
  pest or weed control at 1000 g/ha: 0%
[6]
  pest or weed control at 1000 g/ha: 0%
[7]
  pest or weed control at 1000 g/ha: 0%
[8]
  pest or weed control at 1000 g/ha: 0%
Setaria faberi (SETFA) [9]
  pest or weed control at 1000 g/ha: 0%
[10]
  pest or weed control at 1000 g/ha: 0%
Solanum nigrum (SOLNI) [11]
  pest or weed control at 1000 g/ha: 0%
[12]
  pest or weed control at 1000 g/ha: 0%

## Cc1cc2c(C(=O)O)nc(-c3ccc(Cl)c(F)c3)nc2n1Cc1ccccc1 [Compound 6-21, 4-Carboxy-2-(4-chloro-3-fluorophenyl)-6-methyl-7-phenylmethyl-7H-pyrrolo[2,3-d]pyrimidine]
[1]; rate 250 g/ha
  pest or weed control at 250 g/ha: 0%
[2]; rate 250 g/ha
  pest or weed control at 250 g/ha: 10%
Setaria faberi (SETFA) [3]; rate 250 g/ha
  pest or weed control at 250 g/ha: 0%
[4]; rate 250 g/ha
  pest or weed control at 250 g/ha: 0%
Solanum nigrum (SOLNI) [5]; rate 250 g/ha
  pest or weed control at 250 g/ha: 10%
[6]; rate 250 g/ha
  pest or weed control at 250 g/ha: 10%
[7]; rate 250 g/ha
  pest or weed control at 250 g/ha: 0%
[8]; rate 250 g/ha
  pest or weed control at 250 g/ha: 0%
Setaria faberi (SETFA) [9]; rate 250 g/ha
  pest or weed control at 250 g/ha: 0%
[10]; rate 250 g/ha
  pest or weed control at 250 g/ha: 0%
Solanum nigrum (SOLNI) [11]; rate 250 g/ha
  pest or weed control at 250 g/ha: 0%
[12]; rate 250 g/ha
  pest or weed control at 250 g/ha: 0%

## COC(=O)c1nc(-c2ccc(Cl)c(OC)c2F)cc2c1c(C)cn2C(=O)C(C)(C)C [Compound 37-64, 1-t-Butylcarbonyl-6-(4-chloro-2-fluoro-3-methoxyphenyl)-4-methoxycarbonyl-3-methyl-1H-pyrrolo[3,2-c]pyridine]
[1]
  pest or weed control at 1000 g/ha: 0%
[2]
  pest or weed control at 1000 g/ha: 0%
Setaria faberi (SETFA) [3]
  pest or weed control at 1000 g/ha: 0%
[4]
  pest or weed control at 1000 g/ha: 0%
Solanum nigrum (SOLNI) [5]
  pest or weed control at 1000 g/ha: 50%
[6]
  pest or weed control at 1000 g/ha: 40%
[7]
  pest or weed control at 1000 g/ha: 0%
[8]
  pest or weed control at 1000 g/ha: 0%
Setaria faberi (SETFA) [9]
  pest or weed control at 1000 g/ha: 0%
[10]
  pest or weed control at 1000 g/ha: 0%
Solanum nigrum (SOLNI) [11]
  pest or weed control at 1000 g/ha: 0%
[12]
  pest or weed control at 1000 g/ha: 0%

## COC(=O)c1nc(-c2ccc(Cl)c(OC)c2F)nc2[nH]cc(C)c12 [Compound 1-64, 2-(4-chloro-2-fluoro-3-methoxyphenyl)-4-methoxycarbonyl-5-methyl-7H-pyrrolo[2,3-d]pyrimidine]
[1]
  pest or weed control at 1000 g/ha: 70%
[2]
  pest or weed control at 1000 g/ha: 20%
Setaria faberi (SETFA) [3]
  pest or weed control at 1000 g/ha: 70%
[4]
  pest or weed control at 1000 g/ha: 100%
Solanum nigrum (SOLNI) [5]
  pest or weed control at 1000 g/ha: 80%
[6]
  pest or weed control at 1000 g/ha: 70%
[7]
  pest or weed control at 1000 g/ha: 30%
[8]
  pest or weed control at 1000 g/ha: 20%
Setaria faberi (SETFA) [9]
  pest or weed control at 1000 g/ha: 10%
[10]
  pest or weed control at 1000 g/ha: 100%
Solanum nigrum (SOLNI) [11]
  pest or weed control at 1000 g/ha: 70%
[12]
  pest or weed control at 1000 g/ha: 100%

## COC(=O)c1nc(-c2ccc(Cl)c(N(C)C)c2F)nc2[nH]c(C)cc12 [Compound 1-118, 2-(4-chloro-3-dimethylamino-2-fluorophenyl)-4-methoxycarbonyl-6-methyl-7H-pyrrolo[2,3-d]pyrimidine]
[1]
  pest or weed control at 1000 g/ha: 50%
[2]
  pest or weed control at 1000 g/ha: 10%
Setaria faberi (SETFA) [3]
  pest or weed control at 1000 g/ha: 70%
[4]
  pest or weed control at 1000 g/ha: 100%
Solanum nigrum (SOLNI) [5]
  pest or weed control at 1000 g/ha: 80%
[6]
  pest or weed control at 1000 g/ha: 50%
[7]
  pest or weed control at 1000 g/ha: 10%
[8]
  pest or weed control at 1000 g/ha: 0%
Setaria faberi (SETFA) [9]
  pest or weed control at 1000 g/ha: 20%
[10]
  pest or weed control at 1000 g/ha: 40%
Solanum nigrum (SOLNI) [11]
  pest or weed control at 1000 g/ha: 70%
[12]
  pest or weed control at 1000 g/ha: 40%

## Cc1cc2c(C(=O)O)nc(-c3ccc(Cl)c(F)c3)nc2n1Cc1ccco1 [Compound 11-21, 4-Carboxy-2-(4-chloro-3-fluorophenyl)-7-(2-furanyl-methyl)-6-methyl-7H-pyrrolo[2,3-d]pyrimidine]
[1]
  pest or weed control at 1000 g/ha: 0%
[2]
  pest or weed control at 1000 g/ha: 0%
Setaria faberi (SETFA) [3]
  pest or weed control at 1000 g/ha: 0%
[4]
  pest or weed control at 1000 g/ha: 0%
Solanum nigrum (SOLNI) [5]
  pest or weed control at 1000 g/ha: 50%
[6]
  pest or weed control at 1000 g/ha: 20%
[7]
  pest or weed control at 1000 g/ha: 0%
[8]
  pest or weed control at 1000 g/ha: 0%
Setaria faberi (SETFA) [9]
  pest or weed control at 1000 g/ha: 0%
[10]
  pest or weed control at 1000 g/ha: 0%
Solanum nigrum (SOLNI) [11]
  pest or weed control at 1000 g/ha: 0%
[12]
  pest or weed control at 1000 g/ha: 0%

## COC(=O)c1nc(-c2ccc(Cl)c(OC)c2F)nc2scc(C)c12 [Compound 21-64, 2-(4-Chloro-2-fluoro-3-methoxyphenyl)-4-methoxycarbonyl-5-methyl-thieno[2,3-d]pyrimidine]
[1]
  pest or weed control at 1000 g/ha: 10%
[2]
  pest or weed control at 1000 g/ha: 0%
Setaria faberi (SETFA) [3]
  pest or weed control at 1000 g/ha: 0%
[4]
  pest or weed control at 1000 g/ha: 80%
Solanum nigrum (SOLNI) [5]
  pest or weed control at 1000 g/ha: 70%
[6]
  pest or weed control at 1000 g/ha: 40%
[7]
  pest or weed control at 1000 g/ha: 0%
[8]
  pest or weed control at 1000 g/ha: 0%
Setaria faberi (SETFA) [9]
  pest or weed control at 1000 g/ha: 0%
[10]
  pest or weed control at 1000 g/ha: 0%
Solanum nigrum (SOLNI) [11]
  pest or weed control at 1000 g/ha: 0%
[12]
  pest or weed control at 1000 g/ha: 0%

## COc1ccc(Cn2cc(C)c3c(C(=O)O)nc(-c4ccc(Cl)c(OC)c4F)nc32)cc1 [Compound 10-63, 4-Carboxy-2-(4-chloro-2-fluoro-3-methoxyphenyl)-7-(4-methoxyphenyl-methyl)-5-methyl-7H-pyrrolo[2,3-d]pyrimidine]
[1]
  pest or weed control at 1000 g/ha: 0%
[2]
  pest or weed control at 1000 g/ha: 0%
Setaria faberi (SETFA) [3]
  pest or weed control at 1000 g/ha: 0%
[4]
  pest or weed control at 1000 g/ha: 10%
Solanum nigrum (SOLNI) [5]
  pest or weed control at 1000 g/ha: 20%
[6]
  pest or weed control at 1000 g/ha: 20%
[7]
  pest or weed control at 1000 g/ha: 0%
[8]
  pest or weed control at 1000 g/ha: 0%
Setaria faberi (SETFA) [9]
  pest or weed control at 1000 g/ha: 0%
[10]
  pest or weed control at 1000 g/ha: 0%
Solanum nigrum (SOLNI) [11]
  pest or weed control at 1000 g/ha: 0%
[12]
  pest or weed control at 1000 g/ha: 0%
